Test results: patent US7649001B2
Residue numbers refer to the chain shown, from its start.

Legend:
[1] = tested on: Human prostate cancer cell strain LNCaP-FGC; assay: cells; type: cell-based; conditions: 72 h, read-out: Promotion rate (%) on PSA production at 100 nM
[2] = molecular target: T1, wild type androgen receptor (AR) (Homo sapiens, UniProt P10275); assay: AR-binding inhibition test (wild type); conditions: read-out: Inhibition rate (%) at 100 nM Wild type
T1 sequence (P10275 1-920): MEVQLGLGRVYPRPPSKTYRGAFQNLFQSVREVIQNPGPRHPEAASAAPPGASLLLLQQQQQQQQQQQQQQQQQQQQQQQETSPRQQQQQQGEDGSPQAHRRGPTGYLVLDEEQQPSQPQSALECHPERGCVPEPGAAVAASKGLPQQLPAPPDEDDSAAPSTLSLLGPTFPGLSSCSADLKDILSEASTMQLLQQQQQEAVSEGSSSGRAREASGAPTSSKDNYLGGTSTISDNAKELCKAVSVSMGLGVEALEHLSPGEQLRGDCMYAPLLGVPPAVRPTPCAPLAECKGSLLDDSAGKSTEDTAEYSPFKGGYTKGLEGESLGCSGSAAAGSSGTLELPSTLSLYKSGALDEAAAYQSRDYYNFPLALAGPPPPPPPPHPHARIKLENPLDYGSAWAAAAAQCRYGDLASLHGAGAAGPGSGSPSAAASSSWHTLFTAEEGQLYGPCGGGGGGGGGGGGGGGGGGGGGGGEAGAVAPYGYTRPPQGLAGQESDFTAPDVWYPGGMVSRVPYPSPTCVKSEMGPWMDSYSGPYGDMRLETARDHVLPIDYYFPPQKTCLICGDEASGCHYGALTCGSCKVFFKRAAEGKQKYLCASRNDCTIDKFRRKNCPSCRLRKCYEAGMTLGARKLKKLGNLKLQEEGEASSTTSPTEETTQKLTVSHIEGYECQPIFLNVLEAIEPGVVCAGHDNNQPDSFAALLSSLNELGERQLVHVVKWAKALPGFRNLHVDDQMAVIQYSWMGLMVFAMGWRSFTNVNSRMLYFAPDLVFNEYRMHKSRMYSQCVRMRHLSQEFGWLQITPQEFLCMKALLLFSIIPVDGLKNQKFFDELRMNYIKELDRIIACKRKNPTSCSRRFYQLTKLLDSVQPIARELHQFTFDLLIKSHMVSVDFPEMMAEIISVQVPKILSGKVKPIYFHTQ

[3] = molecular target: T2, LNCaP type mutant androgen receptor (AR) (Homo sapiens, UniProt P10275, T878A); assay: AR-binding inhibition test (LNCaP type); conditions: read-out: Inhibition rate (%) at 100 nM LNCaP type
T2 sequence (P10275 1-920 T878A): T1 sequence (P10275 1-920) with T878A

SMILES	activation at 0.1 µM [1]	melting point	inhibition at 0.1 µM [2]	inhibition at 0.1 µM [3]
N#Cc1ccc(N2CCC(CCO)CC2)c2ccccc12 [Compound 78, 4-[4-(2-hydroxyethyl)-1-piperidinyl]-1-naphthonitrile]	89%	128 to 129 °C	92%	97%
N#Cc1ccc(N2CCC(CCO)C2)c2ccsc12 (stereo not drawn) [Compound 101, 4-[3-(2-hydroxyethyl)-1-pyrrolidinyl]-1-benzothiophene-7-carbonitrile]	86%	109 to 111 °C	93%	97%
C[C@H]1[C@H](O)CCN1c1ccc(C#N)c2sccc12 [Compound 115, 4-[(2S,3R)-3-hydroxy-2-methyl-1-pyrrolidinyl]-1-benzothiophene-7-carbonitrile]	76%	145 to 146 °C	93%	97%
N#Cc1ccc(N2CCSCC2)c2ccccc12 [Compound 8, 4-(4-thiomorpholinyl)-1-naphthonitrile]	71%	130 to 131 °C	92%	96%
C[C@H]1C[C@@H](O)CN1c1ccc(C#N)c2sccc12 [Compound 109, 4-[(2S,4R)-4-hydroxy-2-methyl-1-pyrrolidinyl]-1-benzothiophene-7-carbonitrile]	86%	102 to 103 °C	98%	99%
N#Cc1ccc(N2CCC(CO)CC2)c2ccccc12 [Compound 30, 4-[4-(hydroxymethyl)-1-piperidinyl]-1-naphthonitrile]	100%	135 to 136 °C	105%	113%
